The values below come from publication PMC6977399 (Clinical Pharmacology and Therapeutics, 2019).

The test system of data set [1] is CYP3A. The conditions noted are these: in the presence of fluconazole and voriconazole; cited from earlier work.
The conditions of data set [2]: cited from earlier work.
The nature of data set [3]: Literature estimates of intestinal availability. Details: species or system human. The conditions noted are these: translated from FaFg 0.28.
The subject of another data set is OATP1B and BCRP. The settings on record: clinical DDI study; cited from earlier work.
The subject of another data set is BCRP and OATP1B. Description: Clinical DDI study part 2: effect of fenebrutinib on PK of rosuvastatin. The settings on record: both, human, plasma, oral.
Assay in data set [4]: as above
The settings on record: both, human, plasma, oral, 20 mg.

For data set [5] the following is noted: both, human, plasma, oral, 2 mg.
For data set [6], the system named is CYP3A.
Where [7] appears, read: MDZ coadministered with fenebrutinib 200 mg b.i.d. vs MDZ alone.
[8] abbreviates: both, human, plasma, oral, 2 mg.

Read-outs that look alike come from different tables or passages of the source.

For orientation: half-life means the time needed for the level to fall by half in the phase considered. A high value points to slow loss.

Take `OCc1ncc2n1-c1ccc(Cl)cc1C(c1ccccc1F)=NC2` [1′‐hydroxymidazolam]: in the data set with CYP3A [1], the “exposure increase in the presence of other CYP3A inhibitors” value is recorded as ~ 1.5 fold.
For the compound `CC(C)c1nc(N(C)S(C)(=O)=O)nc(-c2ccc(F)cc2)c1/C=C/[C@@H](O)C[C@@H](O)CC(=O)O` [Rosuvastatin, rosuvastatin], in data set [2] (estimated, ref Tanaka et al.23), the FaFg is recorded as 0.28. In addition, the “maximum AUC increase if FaFg increased to 1 with intestinal BCRP inhibition” value in data set [3] is given as 3.6 fold. In addition, in the data set with OATP1B and BCRP, the “exposure increase in the presence of eltrombopag” value is recorded as 55%. Further, the half-life with BCRP and OATP1B is 18.2 h. Besides, the AUC(0-t) with BCRP and OATP1B (20 mg) worked out at 91 ng·h/mL. In data set [4], the AUC(0-inf) was determined as 93 ng·h/mL, the Cmax amounted to 9.08 ng/mL and the half-life was 19.9 h.
Turning to `Cc1ncc2n1-c1ccc(Cl)cc1C(c1ccccc1F)=NC2` [MDZ, midazolam], in data set [5], the Cmax was 8.54 ng/mL and the half-life was 6.23 h. Further, in the data set on CYP3A [6] (setting [7]), the “AUC0−t, fold higher with fenebrutinib vs alone” value is ~ 1.99 fold and the “Cmax, fold higher with fenebrutinib vs alone” value is listed as ~ 1.74 fold. In the data set on CYP3A [6] (both, human, plasma, oral), the half-life was 6.68 h. In addition, in the data set on CYP3A [6] (setting [8]), the AUC(0-inf) stood at 20.5 ng·h/mL and the AUC(0-t) was found to be 19.2 ng·h/mL. The “intestinal availability (FaFg)” value in data set [2] is 48%.
